Experimental findings from article PMC2806030, “Inhibition of mammalian S6 kinase by resveratrol suppresses autophagy” (Aging (Albany NY), 2009) are described below.

What all share (experiment): biochemical
Set-up in all cases: Upstate KinaseProfiler in vitro kinase activity assay, per cent of DMSO control
What all share (conditions): read-out: Activity (% of Control)

The target in one test is T1, PDGFRα(h) (Homo sapiens, UniProt P16234).
T1 construct: gene PDGFRA
In a few lines:
(§1)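 Profiling done with Upstate KinaseProfiler service across 100 kinases, resveratrol tested at 20 μM; activity expressed relative to control.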

For the next test, the target named is T2, PKCδ(h) (Homo sapiens, UniProt Q05655).
T2 construct: gene PRKCD
The method, boiled down:
as §1

In the next test the target is T3, TAK1(h) (Homo sapiens, UniProt O43318).
T3 construct: gene MAP3K7
The method, boiled down:
as §1

A further test has as its target DAPK1(h) (Homo sapiens, UniProt P53355). In a few lines:
as §1

A further test has as its target CDK1/cyclinB(h) (Homo sapiens, UniProt P06493). The method, boiled down:
as §1

Another test deals with T4, PKD2(h) (Homo sapiens, UniProt Q9BZL6).
T4 construct: gene PRKD2
The method, boiled down: as §1

For the next test, the target named is NEK7(h) (Homo sapiens, UniProt Q8TDX7). The method, boiled down:
as §1

Another test concerns the target Plk3(h) (Homo sapiens, UniProt Q9H4B4). The method, boiled down: as §1
The target in the next test is T5, Pim-1 (Homo sapiens, UniProt P11309).
T5 construct: gene PIM1
The method, boiled down:
as §1

A further test deals with PAK4(h) (Homo sapiens, UniProt O96013). The method, boiled down: as §1
In a further test the target is DAPK2(h) (Homo sapiens, UniProt Q9UIK4). The method, boiled down: as §1
For the next test, the target named is T6, ALK4(h) (Homo sapiens, UniProt P36896).
T6 construct: gene ACVR1B
In a few lines: as §1

The next test has as its target Flt1(h) (Homo sapiens, UniProt P17948). In a few lines:
as §1

Another test concerns the target T7, PKCα(h) (Homo sapiens, UniProt P17252).
T7 construct: gene PRKCA
The method, boiled down:
as §1

The target in another test is T8, IRR(h) (Homo sapiens, UniProt P14616).
T8 construct: gene INSRR
The method, boiled down:
as §1

Another test concerns the target T9, Fms(h) (Homo sapiens, UniProt P07333).
T9 construct: gene CSF1R
The method, boiled down: as §1

The target of a further test is T10, cSRC(h) (Homo sapiens, UniProt P12931).
T10 construct: gene SRC
The method, boiled down: as §1

The target of a further test is CDK3/cyclinE(h) (Homo sapiens, UniProt Q00526). In a few lines:
as §1

T3 sequence (O43318 whole entry): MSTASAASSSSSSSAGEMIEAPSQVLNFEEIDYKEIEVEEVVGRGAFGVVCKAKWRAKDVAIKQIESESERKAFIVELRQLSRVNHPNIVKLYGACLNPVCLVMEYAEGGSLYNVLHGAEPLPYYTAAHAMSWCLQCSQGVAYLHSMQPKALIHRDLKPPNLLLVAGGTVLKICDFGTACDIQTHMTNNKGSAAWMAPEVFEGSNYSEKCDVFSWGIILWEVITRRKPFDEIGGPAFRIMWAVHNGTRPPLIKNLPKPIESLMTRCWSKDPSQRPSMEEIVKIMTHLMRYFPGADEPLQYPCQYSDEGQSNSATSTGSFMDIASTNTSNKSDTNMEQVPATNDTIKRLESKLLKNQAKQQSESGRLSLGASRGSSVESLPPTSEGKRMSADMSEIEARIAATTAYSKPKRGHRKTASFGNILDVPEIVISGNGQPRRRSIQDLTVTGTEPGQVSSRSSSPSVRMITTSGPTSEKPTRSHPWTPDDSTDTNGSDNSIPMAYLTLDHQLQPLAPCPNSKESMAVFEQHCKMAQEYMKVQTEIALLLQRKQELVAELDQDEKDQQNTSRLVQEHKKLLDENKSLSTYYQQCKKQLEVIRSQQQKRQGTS
T5 sequence (P11309 whole entry): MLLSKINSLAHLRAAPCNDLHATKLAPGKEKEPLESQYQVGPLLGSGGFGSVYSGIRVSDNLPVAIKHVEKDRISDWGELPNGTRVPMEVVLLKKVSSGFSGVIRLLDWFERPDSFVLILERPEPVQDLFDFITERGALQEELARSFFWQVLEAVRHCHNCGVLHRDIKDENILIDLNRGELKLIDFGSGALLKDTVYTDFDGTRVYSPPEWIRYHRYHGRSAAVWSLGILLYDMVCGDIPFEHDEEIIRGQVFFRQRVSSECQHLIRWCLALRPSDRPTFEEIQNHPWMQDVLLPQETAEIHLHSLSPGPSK
T8 sequence (P14616 whole entry): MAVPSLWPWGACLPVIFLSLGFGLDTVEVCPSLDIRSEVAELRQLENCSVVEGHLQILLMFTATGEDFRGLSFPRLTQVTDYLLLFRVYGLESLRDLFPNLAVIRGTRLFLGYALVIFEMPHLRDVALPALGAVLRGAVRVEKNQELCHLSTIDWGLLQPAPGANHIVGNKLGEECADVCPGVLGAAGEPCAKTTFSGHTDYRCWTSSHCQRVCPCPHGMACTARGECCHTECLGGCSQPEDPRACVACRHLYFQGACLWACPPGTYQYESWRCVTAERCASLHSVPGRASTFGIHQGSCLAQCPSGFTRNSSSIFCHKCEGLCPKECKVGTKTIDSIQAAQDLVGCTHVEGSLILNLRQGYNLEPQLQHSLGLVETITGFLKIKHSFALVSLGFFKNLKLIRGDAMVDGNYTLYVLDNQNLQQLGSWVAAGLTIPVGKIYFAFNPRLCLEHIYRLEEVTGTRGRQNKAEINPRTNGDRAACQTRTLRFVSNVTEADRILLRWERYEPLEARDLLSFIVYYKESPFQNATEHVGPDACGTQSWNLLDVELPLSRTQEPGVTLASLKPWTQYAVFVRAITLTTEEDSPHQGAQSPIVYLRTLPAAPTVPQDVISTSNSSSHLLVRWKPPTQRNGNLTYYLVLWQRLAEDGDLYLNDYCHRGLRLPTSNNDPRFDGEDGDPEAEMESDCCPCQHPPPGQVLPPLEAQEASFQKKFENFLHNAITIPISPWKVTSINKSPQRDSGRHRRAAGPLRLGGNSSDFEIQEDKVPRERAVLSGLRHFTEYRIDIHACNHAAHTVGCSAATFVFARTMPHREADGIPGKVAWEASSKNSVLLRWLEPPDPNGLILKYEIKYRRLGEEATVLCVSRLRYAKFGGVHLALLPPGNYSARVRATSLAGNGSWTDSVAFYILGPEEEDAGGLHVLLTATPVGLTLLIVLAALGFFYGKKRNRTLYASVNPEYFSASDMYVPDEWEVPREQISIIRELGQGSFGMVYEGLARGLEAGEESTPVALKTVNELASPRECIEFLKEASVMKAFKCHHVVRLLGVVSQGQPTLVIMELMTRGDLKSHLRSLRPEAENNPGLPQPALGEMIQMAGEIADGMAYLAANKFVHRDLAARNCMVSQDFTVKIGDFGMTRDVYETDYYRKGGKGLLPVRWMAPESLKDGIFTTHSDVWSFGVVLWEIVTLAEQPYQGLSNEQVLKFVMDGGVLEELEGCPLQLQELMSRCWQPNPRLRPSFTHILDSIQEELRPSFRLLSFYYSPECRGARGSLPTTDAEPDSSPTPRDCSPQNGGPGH
Sequence of CDK1/cyclinB(h) (P06493 whole entry): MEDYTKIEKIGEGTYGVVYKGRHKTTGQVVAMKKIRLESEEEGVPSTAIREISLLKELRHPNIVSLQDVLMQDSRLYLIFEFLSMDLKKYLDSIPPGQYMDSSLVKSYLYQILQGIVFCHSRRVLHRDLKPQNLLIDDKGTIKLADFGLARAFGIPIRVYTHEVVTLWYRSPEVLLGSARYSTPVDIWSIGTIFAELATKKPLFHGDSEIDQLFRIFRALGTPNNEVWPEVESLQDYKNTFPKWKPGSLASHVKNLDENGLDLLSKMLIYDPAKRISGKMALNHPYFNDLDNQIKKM
Sequence of CDK1/cyclinB(h) (P14635 whole entry partner): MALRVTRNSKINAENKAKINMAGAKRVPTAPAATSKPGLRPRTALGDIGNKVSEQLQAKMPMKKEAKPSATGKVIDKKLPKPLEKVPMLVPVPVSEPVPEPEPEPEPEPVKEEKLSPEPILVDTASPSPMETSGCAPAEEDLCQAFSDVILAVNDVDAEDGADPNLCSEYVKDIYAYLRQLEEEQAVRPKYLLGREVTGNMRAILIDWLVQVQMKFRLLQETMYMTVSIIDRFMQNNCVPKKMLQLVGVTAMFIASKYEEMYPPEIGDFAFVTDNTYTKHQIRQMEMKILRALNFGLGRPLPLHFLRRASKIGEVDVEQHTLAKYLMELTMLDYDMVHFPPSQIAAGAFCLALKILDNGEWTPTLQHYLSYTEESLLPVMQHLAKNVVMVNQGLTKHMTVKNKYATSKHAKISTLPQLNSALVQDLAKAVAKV
T1 sequence (P16234 whole entry): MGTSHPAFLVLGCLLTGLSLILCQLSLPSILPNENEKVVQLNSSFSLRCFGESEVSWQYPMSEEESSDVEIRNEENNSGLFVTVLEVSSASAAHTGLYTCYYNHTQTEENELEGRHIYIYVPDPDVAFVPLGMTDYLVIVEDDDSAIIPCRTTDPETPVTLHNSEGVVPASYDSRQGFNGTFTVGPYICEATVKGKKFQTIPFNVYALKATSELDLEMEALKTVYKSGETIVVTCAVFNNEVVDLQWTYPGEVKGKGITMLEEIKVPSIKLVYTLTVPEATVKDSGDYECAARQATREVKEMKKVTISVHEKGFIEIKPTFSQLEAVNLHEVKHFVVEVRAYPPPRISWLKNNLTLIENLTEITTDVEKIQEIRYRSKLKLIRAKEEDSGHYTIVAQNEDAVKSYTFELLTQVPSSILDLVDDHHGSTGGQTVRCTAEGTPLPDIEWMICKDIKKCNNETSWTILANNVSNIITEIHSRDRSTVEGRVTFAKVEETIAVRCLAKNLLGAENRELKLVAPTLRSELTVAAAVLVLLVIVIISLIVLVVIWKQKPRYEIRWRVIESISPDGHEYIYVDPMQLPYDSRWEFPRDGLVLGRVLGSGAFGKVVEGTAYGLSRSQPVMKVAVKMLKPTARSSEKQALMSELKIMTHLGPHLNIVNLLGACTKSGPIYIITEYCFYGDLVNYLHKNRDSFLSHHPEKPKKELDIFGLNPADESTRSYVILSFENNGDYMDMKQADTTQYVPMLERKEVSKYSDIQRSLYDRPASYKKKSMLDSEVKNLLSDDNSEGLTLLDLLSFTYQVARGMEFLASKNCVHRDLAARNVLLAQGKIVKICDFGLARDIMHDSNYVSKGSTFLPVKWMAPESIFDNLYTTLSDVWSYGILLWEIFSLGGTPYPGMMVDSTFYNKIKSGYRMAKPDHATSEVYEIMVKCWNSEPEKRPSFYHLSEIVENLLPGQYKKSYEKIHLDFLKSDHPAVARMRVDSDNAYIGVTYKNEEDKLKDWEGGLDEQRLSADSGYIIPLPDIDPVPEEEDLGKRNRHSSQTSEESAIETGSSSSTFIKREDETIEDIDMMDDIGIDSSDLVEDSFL
T2 sequence (Q05655 whole entry): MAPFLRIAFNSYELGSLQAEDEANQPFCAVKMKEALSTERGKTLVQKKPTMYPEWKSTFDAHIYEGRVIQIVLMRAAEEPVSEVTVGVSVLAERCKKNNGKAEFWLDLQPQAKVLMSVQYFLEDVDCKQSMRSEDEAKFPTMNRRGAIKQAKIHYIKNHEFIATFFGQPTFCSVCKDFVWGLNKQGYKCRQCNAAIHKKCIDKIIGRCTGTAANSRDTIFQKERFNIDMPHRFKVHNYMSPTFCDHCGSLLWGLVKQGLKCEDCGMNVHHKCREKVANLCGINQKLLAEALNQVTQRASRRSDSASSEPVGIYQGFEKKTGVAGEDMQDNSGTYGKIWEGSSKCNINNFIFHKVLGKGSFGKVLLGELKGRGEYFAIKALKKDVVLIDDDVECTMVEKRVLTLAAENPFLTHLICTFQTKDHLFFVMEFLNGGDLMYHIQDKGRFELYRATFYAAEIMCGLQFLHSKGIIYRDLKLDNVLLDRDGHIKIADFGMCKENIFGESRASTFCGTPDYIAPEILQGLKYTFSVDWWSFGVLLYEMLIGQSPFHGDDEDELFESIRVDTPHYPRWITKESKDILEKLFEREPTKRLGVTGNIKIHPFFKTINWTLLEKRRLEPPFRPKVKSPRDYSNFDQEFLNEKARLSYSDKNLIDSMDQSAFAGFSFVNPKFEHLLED
Sequence of NEK7(h) (Q8TDX7 whole entry): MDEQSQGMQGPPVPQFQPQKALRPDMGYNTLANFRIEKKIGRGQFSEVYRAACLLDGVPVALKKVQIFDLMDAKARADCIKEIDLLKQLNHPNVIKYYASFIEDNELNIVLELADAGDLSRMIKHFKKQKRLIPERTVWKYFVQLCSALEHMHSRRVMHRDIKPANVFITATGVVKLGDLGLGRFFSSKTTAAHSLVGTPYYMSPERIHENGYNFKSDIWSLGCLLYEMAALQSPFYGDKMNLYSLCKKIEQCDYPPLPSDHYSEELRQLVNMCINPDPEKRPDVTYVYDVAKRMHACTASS

As for `Oc1ccc(/C=C/c2cc(O)cc(O)c2)cc1` [Res, resveratrol], the remaining activity at 20 µM came to 114 ± 2% at PDGFRα(h); 92 ± 1% on PKCδ(h); 105 ± 3% on TAK1(h); 71 ± 3% on DAPK1(h); 67 ± 3% at CDK1/cyclinB(h); 88 ± 5% at PKD2(h). For the same molecule, the remaining activity at 20 µM came to 116 ± 2% on NEK7(h); 95 ± 9% at Plk3(h); 6 ± 2% at Pim-1; 103 ± 4% at PAK4(h); 67 ± 7% on DAPK2(h); 110 ± 3% at ALK4(h). Moreover, the remaining activity at 20 µM on Flt1(h) was 52 ± 1%; on PKCα(h), 114 ± 9%; on IRR(h), 40%; on Fms(h), 61 ± 2%; at cSRC(h) it was 61 ± 1%; at CDK3/cyclinE(h) it was 75 ± 4%.
